Drawing on ChEMBL document CHEMBL4831551, “Novel Heteroaromatic Carboxamides as Plasma Kallikrein Inhibitors for Treating Diabetic Complications, Ocular Diseases, and Edema-Associated Diseases” (ACS Med Chem Lett, 2021), this text covers IC50 for six compounds.

Sequence of Plasma kallikrein (P03952 20-390 limits assumed): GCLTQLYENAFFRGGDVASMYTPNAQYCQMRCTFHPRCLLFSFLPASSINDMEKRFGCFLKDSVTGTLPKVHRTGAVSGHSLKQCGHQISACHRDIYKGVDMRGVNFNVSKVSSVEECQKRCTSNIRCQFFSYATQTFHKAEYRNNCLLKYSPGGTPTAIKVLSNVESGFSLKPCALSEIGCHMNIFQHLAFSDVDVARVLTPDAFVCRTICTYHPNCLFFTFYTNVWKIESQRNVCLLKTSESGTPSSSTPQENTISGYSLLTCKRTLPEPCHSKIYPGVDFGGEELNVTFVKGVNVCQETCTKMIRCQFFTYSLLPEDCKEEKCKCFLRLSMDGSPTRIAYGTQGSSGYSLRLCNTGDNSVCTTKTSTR
Sequence of Plasma kallikrein (P03952 391-638 limits assumed): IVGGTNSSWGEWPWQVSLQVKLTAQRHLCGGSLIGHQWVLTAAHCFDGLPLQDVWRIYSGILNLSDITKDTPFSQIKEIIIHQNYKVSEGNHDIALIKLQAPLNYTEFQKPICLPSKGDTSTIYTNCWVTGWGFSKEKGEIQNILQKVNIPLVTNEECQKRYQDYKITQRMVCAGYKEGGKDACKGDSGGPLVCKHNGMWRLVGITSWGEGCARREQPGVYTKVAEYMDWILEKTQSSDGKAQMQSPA

The assay concerns the target Plasma kallikrein (Homo sapiens, UniProt P03952). Briefly: Inhibition of kallikrein (unknown origin) using H-Pro-Phe-Arg-AMC as substrate incubated for 1 hr by fluorescence based analysis.
The term IC50 denotes the point on the concentration scale where inhibition reaches its midpoint. Read a low IC50 as higher potency. Compound `Cc1[nH]nc2c1CC[C@H]2NC(=O)c1cnn(Cc2ccc(N3CC4C(C3)C4(F)F)nc2C(F)F)c1` (stereo partly specified) returned a half-inhibitory concentration (IC50) of 800 pM.
`Cc1[nH]nc2c1CC[C@H]2NC(=O)c1cn(Cc2ccc(N3CC4CC4C3)nc2C(F)F)cn1` (stereo partly specified) gave a half-inhibitory concentration (IC50) of 700 pM. The IC50 values of the last two compounds are within 1.5-fold of each other.
In turn, `Cc1[nH]nc2c1CC[C@H]2NC(=O)c1cnn(Cc2ccc(N3CC4CC4C3)nc2C(F)F)c1` (stereo partly specified) gave an IC50 of 800 pM.
`Cc1[nH]nc2c1CC[C@H]2NC(=O)c1cn(Cc2ccc(N3CC4(CC4)C3)nc2C(F)F)cn1` yielded a 50% inhibitory concentration (IC50) of 500 pM.
As to `Cc1[nH]nc2c1CC[C@H]2NC(=O)c1cn(Cc2ccc(N3CC4(CC4)C3)nc2C(F)F)nn1`, the half-maximal inhibitory concentration (IC50) was found to be 500 pM.
On to `Cc1[nH]nc2c1CC[C@H]2NC(=O)c1cn(Cc2ccc(N3CC4C(C3)C4(F)F)nc2C(F)F)cn1` (stereo partly specified), for which 600 pM corresponded to half-maximal inhibition (IC50).
